Assay results reported in ChEMBL document CHEMBL1130182, “C-terminal modifications of histidyl-N-benzylglycinamides to give improved inhibition of Ras farnesyltransferase, cellular activity, and anticancer activity in mice” (J Med Chem, 1997).
Square brackets hold non-standard residues; d marks the D form. Peptide text beside a SMILES is read from it. * marks the point of attachment. Cbz = O=C(OCc1ccccc1)*; Bn = c1ccc(C*)cc1

How the values were obtained:
[1] = molecular target: Protein farnesyltransferase (Rattus norvegicus, UniProt Q02293+Q04631); assay: In vitro inhibition of rat farnesyltransferase.; format: protein-complex assay
Mus musculus = organism: Mus musculus; assay: Minimum effective dose required to detect unfarnesylated Ras in H-Ras-transformed NIH3T3 (H-Ras-F) cells injected into mice.; format: functional

| Structure (SMILES) | IC50 [1] [nM] | MED (Mus musculus) [µM] |
| --- | --- | --- |
| O=C(CN(Cc1ccc(OCc2ccccc2)cc1)C(=O)[C@H](Cc1c[nH]cn1)NC(=O)OCc1ccccc1)NCCOCc1ccccc1 | 320 | 1 |
| O=C(CN(Cc1ccc(OCc2ccccc2)cc1)C(=O)[C@H](Cc1c[nH]cn1)NC(=O)OCc1ccccc1)NCCc1ccccc1 | 62 | 0.1 |
| CCC(CNC(=O)CN(Cc1ccc(OCc2ccccc2)cc1)C(=O)[C@H](Cc1c[nH]cn1)NC(=O)OCc1ccccc1)c1ccccc1 (some centres not stated) | 5 | 0.05 |
| CCC(CC)(CNC(=O)CN(Cc1ccc(OCc2ccccc2)cc1)C(=O)[C@H](Cc1c[nH]cn1)NC(=O)OCc1ccccc1)c1ccccc1 |  | 0.2 |
| C[C@@H](CNC(=O)CN(Cc1ccc(OCc2ccccc2)cc1)C(=O)[C@H](Cc1c[nH]cn1)NC(=O)OCc1ccccc1)c1ccccc1 | 16 | 0.2 |
| C[C@H](CNC(=O)CN(Cc1ccc(OCc2ccccc2)cc1)C(=O)[C@H](Cc1c[nH]cn1)NC(=O)OCc1ccccc1)c1ccccc1 | 5 | 0.05 |
| N#CC(CNC(=O)CN(Cc1ccc(OCc2ccccc2)cc1)C(=O)[C@H](Cc1c[nH]cn1)NC(=O)OCc1ccccc1)c1ccccc1 (some centres not stated) | 2 | 0.05 |
| C[C@@H](Cc1ccccc1)NC(=O)CN(Cc1ccc(OCc2ccccc2)cc1)C(=O)[C@H](Cc1c[nH]cn1)NC(=O)OCc1ccccc1 | 41 | 0.2 |
| CC(CNC(=O)CN(Cc1ccc(OCc2ccccc2)cc1)C(=O)[C@H](Cc1c[nH]cn1)NC(=O)OCc1ccccc1)c1ccccc1 (some centres not stated) | 8 | 0.05 |
| C[C@H](Cc1ccccc1)NC(=O)CN(Cc1ccc(OCc2ccccc2)cc1)C(=O)[C@H](Cc1c[nH]cn1)NC(=O)OCc1ccccc1 | 3 | 0.05 |
| CCCC(CNC(=O)CN(Cc1ccc(OCc2ccccc2)cc1)C(=O)[C@H](Cc1c[nH]cn1)NC(=O)OCc1ccccc1)c1ccccc1 (some centres not stated) | 25 | 0.2 |
| O=C(CN(Cc1ccc(OCc2ccccc2)cc1)C(=O)[C@H](Cc1c[nH]cn1)NC(=O)OCc1ccccc1)NCC1(c2ccccc2)CCCC1 | 17 | 0.2 |
| O=C(CN(Cc1ccc(OCc2ccccc2)cc1)C(=O)[C@H](Cc1c[nH]cn1)NC(=O)OCc1ccccc1)NCC1(c2ccccc2)CCC1 | 6 | 0.02 |
| O=C(CN(Cc1ccc(OCc2ccccc2)cc1)C(=O)[C@H](Cc1c[nH]cn1)NC(=O)OCc1ccccc1)NCC1(c2ccccc2)CC1 | 7 | 0.02 |
| CC(C)(Cc1ccccc1)NC(=O)CN(Cc1ccc(OCc2ccccc2)cc1)C(=O)[C@H](Cc1c[nH]cn1)NC(=O)OCc1ccccc1 | 270 | 1 |
| CC(C)(CNC(=O)CN(Cc1ccc(OCc2ccccc2)cc1)C(=O)[C@H](Cc1c[nH]cn1)NC(=O)OCc1ccccc1)c1ccccc1 | 4 | 0.05 |
| C[C@@H](NC(=O)[C@H](Cc1c[nH]c2ccccc12)NC(=O)[C@H](COCc1ccccc1)NC(=O)[C@H](Cc1ccc(OCc2ccccc2)cc1)NC(=O)[C@H](Cc1c[nH]cn1)NC(=O)OCc1ccccc1)C(N)=O (Cbz-HY(Bn)S(Bn)W[dA]-NH2) |  | >100 |
